Results as given in patent US12173018B2, “Penicillin-binding protein inhibitors” (priority 2018, dated 2024).
Values after ≈ are worked out from the molar mass of the structure shown.

Key:
[1] = system: N. gonorrhoeae FA19; assay: Liquid broth MIC, N. gonorrhoeae FA19; type: cell-based; settings: Neisseria gonorrhoeae; N. gonorrhoeae FA19, liquid broth; read-out: Minimum Inhibitory Concentration, N. gonorrhoeae FA19
Outline: (§1)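 MIC taken by eye as the lowest well lacking growth after 40-42 h at 36° C under 5% CO2. Compounds were 2-fold serially diluted; the starting inoculum of 5×10^5 CFU/mL came from direct colony suspensions grown on Kellogg's-supplemented GC agar.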

[2] = system: N. gonorrhoeae WHO F; assay: Liquid broth MIC, N. gonorrhoeae WHO F; type: cell-based; settings: Neisseria gonorrhoeae; N. gonorrhoeae WHO F, liquid broth; read-out: Minimum Inhibitory Concentration, N. gonorrhoeae WHO F
Outline: as §1

[3] = system: E. coli ATCC 25922; assay: Broth microdilution MIC, E. coli ATCC 25922; type: cell-based; settings: Escherichia coli, ATCC25922; E. coli ATCC 25922, broth microdilution; read-out: MIC E. coli 25922
Outline: (§2)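 CLSI broth microdilution in cation-supplemented Mueller-Hinton broth; 2-fold compound dilutions inoculated at 5×10^5 CFU/mL from a 3-5 h log-phase culture. Plates incubated 16-20 hours at 37° C; MIC read visually as lowest concentration with no growth.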

[4] = system: E. coli 901C; assay: microbe, parasite or virus in culture; type: cell-based; settings: Escherichia coli; hyper-permeable E. coli 901C, broth microdilution; read-out: MIC E. coli 901C
Outline: as §2

[5] = system: E. coli AG100A; assay: microbe, parasite or virus in culture; type: cell-based; settings: Escherichia coli, read-out: MIC E. coli AG100A
Outline: as §2

[6] = system: K. pneumoniae UMM; assay: microbe, parasite or virus in culture; type: cell-based; settings: Klebsiella pneumoniae; K. pneumoniae UMM producing SHV-5 and KPC-2; read-out: MIC K. pneumoniae UMM
Outline: as §2

[7] = system: K. pneumoniae SI-117; assay: microbe, parasite or virus in culture; type: cell-based; settings: Klebsiella pneumoniae, SI117, read-out: MIC K. pneumoniae SI-117
Outline: as §2

[8] = system: E. coli D22; assay: microbe, parasite or virus in culture; type: cell-based; settings: Escherichia coli; hyper-permeable E. coli D22, broth microdilution; read-out: MIC E. coli D22
Outline: as §2

[9] = system: K. pneumoniae 848844; assay: microbe, parasite or virus in culture; type: cell-based, Klebsiella pneumoniae; settings: Klebsiella pneumoniae; K. pneumoniae 848844 producing SHV-11 and KPC-2; read-out: MIC K. pneumoniae 848844
Outline: as §2

[10] = system: E. coli AG100; assay: Broth microdilution MIC, E. coli AG100 (wild-type parent); type: cell-based; settings: Escherichia coli; wild-type parent E. coli AG100, broth microdilution; read-out: MIC E. coli AG100
Outline: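 Starting inoculum of 5×10^5 CFU/mL, from colonies grown 3-5 h in Mueller-Hinton broth with divalent cations, added to two-fold compound dilution series.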

[11] = system: N. gonorrhoeae ATCC 49226; assay: Liquid broth MIC, N. gonorrhoeae ATCC 49226; type: cell-based; settings: Neisseria gonorrhoeae, ATCC49226; N. gonorrhoeae ATCC 49226, liquid broth; read-out: Minimum Inhibitory Concentration, N. gonorrhoeae ATCC 49226
Outline: as §1

Row | SMILES | MIC [1] | MIC [2] | MIC [3] | MIC [4] | MIC [5] | MIC [6] | MIC [7] | MIC [8] | MIC [9] | MIC [10] | MIC [11]
1 | CCN1CCN(C(=O)NC(C(=O)N[C@H]2Cc3cccc(C(=O)O)c3OB2O)c2ncc(O)cc2F)C(=O)C1=O (stereo partly drawn) [Example 135, (3R)-3-(2-(4-ethyl-2,3-dioxopiperazine-1-carboxamido)-2-(3-fluoro-5-hydroxypyridin-2-yl)acetamido)-2-hydroxy-3,4-dihydro-2H-benzo[e][1,2]oxaborinine-8-carboxylic acid] | 1 to 2 µg/mL (≈ 1.84 to 3.68 µM) | < 0.125 µg/mL | 2 to 4 µg/mL | < 0.25 µg/mL | 2 to 4 µg/mL | 8 to 16 µg/mL | 32 to 64 µg/mL | 0.5 to 1 µg/mL | 32 to 64 µg/mL | 8 to 16 µg/mL | 1 to 2 µg/mL (≈ 1.84 to 3.68 µM)
2 | CCN1CCN(C(=O)NC(C(=O)N[C@H]2Cc3ccc(F)c(C(=O)O)c3OB2O)c2cc(O)c(O)cc2F)C(=O)C1=O (stereo partly drawn) [Example 136, (3R)-3-(2-(4-ethyl-2,3-dioxopiperazine-1-carboxamido)-2-(2-fluoro-4,5-dihydroxyphenyl)acetamido)-7-fluoro-2-hydroxy-3,4-dihydro-2H-benzo[e][1,2]oxaborinine-8-carboxylic acid] | 4 to 8 µg/mL (≈ 6.94 to 13.9 µM) | 1 to 2 µg/mL (≈ 1.74 to 3.47 µM) | 8 to 16 µg/mL | 0.5 to 1 µg/mL | 2 to 4 µg/mL | 8 to 16 µg/mL | > 128 µg/mL | 2 to 4 µg/mL | 32 to 64 µg/mL | 2 to 4 µg/mL | 1 to 2 µg/mL (≈ 1.74 to 3.47 µM)
3 | CCN1CCN(C(=O)NC(C(=O)N[C@H]2Cc3ccc(F)c(C(=O)O)c3OB2O)c2ncc(O)cc2F)C(=O)C1=O (stereo partly drawn) [Example 145, (3R)-3-(2-(4-ethyl-2,3-dioxopiperazine-1-carboxamido)-2-(3-fluoro-5-hydroxypyridin-2-yl)acetamido)-7-fluoro-2-hydroxy-3,4-dihydro-2H-benzo[e][1,2]oxaborinine-8-carboxylic acid] | 1 to 2 µg/mL (≈ 1.78 to 3.56 µM) | < 0.125 µg/mL | 8 to 16 µg/mL | 0.5 to 1 µg/mL | 2 to 4 µg/mL | 8 to 16 µg/mL | 32 to 64 µg/mL | 2 to 4 µg/mL | 32 to 64 µg/mL | 8 to 16 µg/mL | 0.25 to 0.5 µg/mL (≈ 0.445 to 0.891 µM)
4 | CCN1CCN(C(=O)NC(C(=O)N[C@H]2Cc3ccc(F)c(C(=O)O)c3OB2O)c2ccc(O)c(O)c2F)C(=O)C1=O (stereo partly drawn) [Example 149, (3R)-3-(2-(4-ethyl-2,3-dioxopiperazine-1-carboxamido)-2-(2-fluoro-3,4-dihydroxyphenyl)acetamido)-7-fluoro-2-hydroxy-3,4-dihydro-2H-benzo[e][1,2]oxaborinine-8-carboxylic acid] | 1 to 2 µg/mL (≈ 1.74 to 3.47 µM) | < 0.125 µg/mL | 8 to 16 µg/mL | 0.5 to 1 µg/mL | 0.5 to 1 µg/mL | 2 to 4 µg/mL | 2 to 4 µg/mL | 2 to 4 µg/mL | 2 to 4 µg/mL | 2 to 4 µg/mL | 1 to 2 µg/mL (≈ 1.74 to 3.47 µM)
5 | CCN1CCN(C(=O)NC(C(=O)N[C@H]2Cc3cccc(C(=O)O)c3OB2O)c2ncc(O)cc2Cl)C(=O)C1=O (stereo partly drawn) [Example 150, (3R)-3-(2-(4-ethyl-2,3-dioxopiperazine-1-carboxamido)-2-(3-chloro-5-hydroxypyridin-2-yl)acetamido)-2-hydroxy-3,4-dihydro-2H-benzo[e][1,2]oxaborinine-8-carboxylic acid] | 4 to 8 µg/mL (≈ 7.15 to 14.3 µM) | 0.25 to 0.5 µg/mL (≈ 0.447 to 0.893 µM) | 32 to 64 µg/mL | 0.5 to 1 µg/mL | 2 to 4 µg/mL | 32 to 64 µg/mL | > 128 µg/mL | 2 to 4 µg/mL | > 128 µg/mL | 32 to 64 µg/mL | 4 to 8 µg/mL (≈ 7.15 to 14.3 µM)
6 | CCN1CCN(C(=O)NC(C(=O)N[C@H]2Cc3ccc(F)c(C(=O)O)c3OB2O)c2ncc(O)cc2Cl)C(=O)C1=O (stereo partly drawn) [Example 151, (3R)-3-(2-(3-chloro-5-hydroxypyridin-2-yl)-2-(4-ethyl-2,3-dioxopiperazine-1-carboxamido)acetamido)-7-fluoro-2-hydroxy-3,4-dihydro-2H-benzo[e][1,2]oxaborinine-8-carboxylic acid] | 4 to 8 µg/mL (≈ 6.92 to 13.8 µM) | < 0.125 µg/mL | > 128 µg/mL | 0.5 to 1 µg/mL | 8 to 16 µg/mL | 32 to 64 µg/mL | 32 to 64 µg/mL | 8 to 16 µg/mL | > 128 µg/mL | 32 to 64 µg/mL | 1 to 2 µg/mL (≈ 1.73 to 3.46 µM)
7 | CCN1CCN(C(=O)N[C@@H](C(=O)N[C@H]2Cc3ccc(F)c(C(=O)O)c3OB2O)c2ccc(O)c(F)c2)C(=O)C1=O [Example 161, (R)-3-((R)-2-(4-ethyl-2,3-dioxopiperazine-1-carboxamido)-2-(3-fluoro-4-hydroxyphenyl)acetamido)-7-fluoro-2-hydroxy-3,4-dihydro-2H-benzo[e][1,2]oxaborinine-8-carboxylic acid] | 1 to 2 µg/mL (≈ 1.78 to 3.57 µM) | < 0.125 µg/mL | > 128 µg/mL | 0.5 to 1 µg/mL | 32 to 64 µg/mL | 32 to 64 µg/mL | > 128 µg/mL | 2 to 4 µg/mL | > 128 µg/mL | > 128 µg/mL | 1 to 2 µg/mL (≈ 1.78 to 3.57 µM)
8 | CCN1CCN(C(=O)N[C@@H](C(=O)N[C@H]2Cc3cccc(C(=O)O)c3OB2O)c2ncc(O)cc2F)C(=O)C1=O [Example 177, (R)-3-((R)-2-(4-ethyl-2,3-dioxopiperazine-1-carboxamido)-2-(3-fluoro-5-hydroxypyridin-2-yl)acetamido)-2-hydroxy-3,4-dihydro-2H-benzo[e][1,2]oxaborinine-8-carboxylic acid] | 4 to 8 µg/mL (≈ 7.36 to 14.7 µM) | < 0.125 µg/mL | 8 to 16 µg/mL | < 0.25 µg/mL | 0.5 to 1 µg/mL | 8 to 16 µg/mL | 32 to 64 µg/mL | 0.5 to 1 µg/mL | 32 to 64 µg/mL | 8 to 16 µg/mL | 4 to 8 µg/mL (≈ 7.36 to 14.7 µM)
9 | CCN1CCN(C(=O)NC(C(=O)N[C@H]2Cc3ccc(F)c(C(=O)O)c3OB2O)c2ccc(S(N)(=O)=O)cc2)C(=O)C1=O (stereo partly drawn) [Example 181, (3R)-3-(2-(4-ethyl-2,3-dioxopiperazine-1-carboxamido)-2-(4-sulfamoylphenyl)acetamido)-7-fluoro-2-hydroxy-3,4-dihydro-2H-benzo[e][1,2]oxaborinine-8-carboxylic acid] | 4 to 8 µg/mL (≈ 6.61 to 13.2 µM) | 0.25 to 0.5 µg/mL (≈ 0.413 to 0.826 µM) | > 128 µg/mL | 0.5 to 1 µg/mL | 32 to 64 µg/mL | 32 to 64 µg/mL | > 128 µg/mL | 8 to 16 µg/mL | 32 to 64 µg/mL | > 128 µg/mL | 4 to 8 µg/mL (≈ 6.61 to 13.2 µM)
10 | NS(=O)(=O)c1ccc(C(NC(=O)N2CCN(CCF)C(=O)C2=O)C(=O)N[C@H]2Cc3ccc(F)c(C(=O)O)c3OB2O)cc1 (stereo partly drawn) [Example 182, (3R)-7-fluoro-3-(2-(4-(2-fluoroethyl)-2,3-dioxopiperazine-1-carboxamido)-2-(4-sulfamoylphenyl)acetamido)-2-hydroxy-3,4-dihydro-2H-benzo[e][1,2]oxaborinine-8-carboxylic acid] | 4 to 8 µg/mL (≈ 6.42 to 12.8 µM) | 1 to 2 µg/mL (≈ 1.6 to 3.21 µM) | > 128 µg/mL | 0.5 to 1 µg/mL | 32 to 64 µg/mL | 32 to 64 µg/mL | > 128 µg/mL | 2 to 4 µg/mL | > 128 µg/mL | > 128 µg/mL | 4 to 8 µg/mL (≈ 6.42 to 12.8 µM)
